Assay results taken from patent EP0326418A1, “GRF analogs” (THE UPJOHN COMPANY, priority 1988, dated 1989).
Read-outs that look alike come from different tables or passages of the source. Where a SMILES comes first, the peptide text is derived from it. [ ]: non-standard residue; d: D form. The star is where a group is joined. Desaminotyrosyl = O=C(CCc1ccc(O)cc1)*; Cya = N[C@@H](CS(=O)(=O)O)C(=O)O; X1 = O=C(Cc1ccc(O)cc1)*

What was measured:
[1] = tested on: bovine anterior pituitary cell culture; assay type: cell-based
[2] = proteolytic stability in bovine plasma (HPLC, modified Frohman method); settings: bovine plasma

For `CC[C@H](C)[C@H](NC(=O)[C@H](C)NC(=O)[C@H](CC(=O)O)NC(=O)[C@H](C)NC(=O)Cc1ccc(O)cc1)C(=O)N[C@@H](Cc1ccccc1)C(=O)N[C@H](C(=O)N[C@@H](CO)C(=O)N[C@@H](CO)C(=O)N[C@@H](Cc1ccc(O)cc1)C(=O)N[C@@H](CCCNC(=N)N)C(=O)N[C@@H](CCCNC(=N)N)C(=O)N[C@H](C(=O)N[C@@H](CC(C)C)C(=O)N[C@@H](C)C(=O)N[C@@H](CCC(N)=O)C(=O)N[C@@H](CC(C)C)C(=O)N[C@@H](CO)C(=O)N[C@@H](C)C(=O)N[C@@H](CCCNC(=N)N)C(=O)N[C@@H](CCCNC(=N)N)C(=O)N[C@@H](CC(C)C)C(=O)N[C@@H](CC(C)C)C(=O)N[C@@H](CCC(N)=O)C(=O)N[C@@H](CS(=O)(=O)O)C(=O)N[C@H](C(=O)N[C@@H](CC(C)C)C(=O)N[C@@H](CO)C(=O)N[C@@H](CCCNC(=N)N)C(=O)N[C@@H](CCC(N)=O)C(=O)N[C@@H](CCC(N)=O)C(=O)NCC(N)=O)[C@@H](C)CC)C(C)C)[C@@H](C)O` [Compound 15, Desamino PHPG¹, Ser⁸, Arg¹², Ala¹⁵, Cya²⁵, Leu²⁷, Ser²⁸, bGRF(1-32)NH₂] (X1-ADAIFTSSYRRVLAQLSARRLLQ[Cya]ILSRQQG-NH2), the “the potency of bGRF(1-44)NH₂” value ([1]; another assay, potency as a fraction of bGRF(1-44)NH₂) was 0.97 and the remaining at 1 h [2] was 65%.
In the case of `CC[C@H](C)[C@H](NC(=O)[C@H](C)NC(=O)[C@H](CS(=O)(=O)O)NC(=O)[C@@H](C)NC(=O)CCc1ccc(O)cc1)C(=O)N[C@@H](Cc1ccccc1)C(=O)N[C@H](C(=O)N[C@@H](CC(N)=O)C(=O)N[C@@H](CO)C(=O)N[C@@H](Cc1ccc(O)cc1)C(=O)N[C@@H](CCCNC(=N)N)C(=O)N[C@@H](CCCCN)C(=O)N[C@H](C(=O)N[C@@H](CC(C)C)C(=O)N[C@@H](C)C(=O)N[C@@H](CCC(N)=O)C(=O)N[C@@H](CC(C)C)C(=O)N[C@@H](CO)C(=O)N[C@@H](C)C(=O)N[C@@H](CCCNC(=N)N)C(=O)N[C@@H](CCCCN)C(=O)N[C@@H](CC(C)C)C(=O)N[C@@H](CC(C)C)C(=O)N[C@@H](CCC(N)=O)C(=O)N[C@@H](CC(=O)O)C(=O)N[C@H](C(=O)N[C@@H](CC(C)C)C(=O)N[C@@H](CC(N)=O)C(=O)N[C@@H](CCCNC(=N)N)C(=O)N[C@@H](CCC(N)=O)C(=O)N[C@@H](CCC(N)=O)C(=O)NCC(N)=O)[C@@H](C)CC)C(C)C)[C@@H](C)O` [Compound 10, Desamino-Tyr¹, D-Ala², Cya³, Ala¹⁵, Leu²⁷-bGRF(1-32)NH₂] (Desaminotyrosyl-[dA][Cya]AIFTNSYRKVLAQLSARKLLQDILNRQQG-NH2), the “the potency of bGRF(1-44)NH₂” value [1] is reported as 1.40.
For “DesaminoTyr¹, Cya³, Ser⁸, Arg¹², Ala¹⁵, Arg²¹, Leu²⁷, Ser²⁸, Hse³³ bGRF(1-33)lactone [Compound 20]”, the “potency (in words)” value ([1]; contemplated, compound not tested) was “high potency”.
For `CC[C@H](C)[C@H](NC(=O)[C@H](C)NC(=O)[C@H](CS(=O)(=O)O)NC(=O)[C@H](C)NC(=O)[C@@H](N)Cc1ccc(O)cc1)C(=O)N[C@@H](Cc1ccccc1)C(=O)N[C@H](C(=O)N[C@@H](CC(N)=O)C(=O)N[C@@H](CO)C(=O)N[C@@H](Cc1ccc(O)cc1)C(=O)N[C@@H](CCCNC(=N)N)C(=O)N[C@@H](CCCCN)C(=O)N[C@H](C(=O)N[C@@H](CC(C)C)C(=O)NCC(=O)N[C@@H](CCC(N)=O)C(=O)N[C@@H](CC(C)C)C(=O)N[C@@H](CO)C(=O)N[C@@H](C)C(=O)N[C@@H](CCCNC(=N)N)C(=O)N[C@@H](CCCCN)C(=O)N[C@@H](CC(C)C)C(=O)N[C@@H](CC(C)C)C(=O)N[C@@H](CCC(N)=O)C(=O)N[C@@H](CS(=O)(=O)O)C(=O)N[C@H](C(=O)N[C@@H](CC(C)C)C(=O)N[C@@H](CC(N)=O)C(=O)N[C@@H](CCCNC(=N)N)C(=O)N[C@@H](CCC(N)=O)C(=O)N[C@@H](CCC(N)=O)C(=O)NCC(N)=O)[C@@H](C)CC)C(C)C)[C@@H](C)O` [Compound 2, Cya^3,25, Leu²⁷bGRF(1-32)NH₂] (H-YA[Cya]AIFTNSYRKVLGQLSARKLLQ[Cya]ILNRQQG-NH2), the “the potency of bGRF(1-44)NH₂” value [1] was 0.11.
